Test results published in ChEMBL document CHEMBL5634112, “Synthesis and biological evaluation of fluoroquinolones containing a pyridoxine derivatives moiety” (Eur J Med Chem, 2023).
The source made the active and inactive calls. The rule behind the calls is not given here.

Assays:
Staphylococcus aureus [1] = assay: Antibacterial activity against clinical isolate Staphylococcus aureus 1812 assessed as reduction in microbial growth incubated for 24 hrs by broth microdilution method; type: functional
DNA gyrase [2] = biological target: T1, DNA gyrase (Staphylococcus aureus, UniProt P0A0K8+P20831); assay: Inhibition of Staphylococcus aureus DNA gyrase using supercoiled pBR322 DNA as substrate incubated for 60 mins by ethidium bromide staining based agarose gel electrophoresis method; type: protein-complex assay
[3] = Toxicity in female rat assessed as mortality at 2000 mg/kg, po; type: organism-based; conditions: in vivo
DNA gyrase [4] = biological target: T1, DNA gyrase; assay: Inhibition of Staphylococcus aureus DNA gyrase using relaxed pBR322 DNA as substrate incubated for 30 mins by ethidium bromide staining based agarose gel electrophoresis method; type: protein-complex assay
Staphylococcus aureus [5] = assay: In vivo antibacterial activity against Staphylococcus aureus N-10 infected in Po dosed SHK mouse model of sepsis assessed as survival measured after 14 days; type: functional; conditions: N-10, 336 h, time 14 day
Staphylococcus aureus [6] = assay: Antibacterial activity against clinical isolate Staphylococcus aureus 4721 assessed as reduction in microbial growth incubated for 24 hrs by broth microdilution method; type: functional
[7] = system: Staphylococcus epidermidis; assay: Antibacterial activity against clinical isolate Staphylococcus epidermidis NKC 37/1 assessed as reduction in microbial growth incubated for 24 hrs by broth microdilution method; type: functional
[8] = system: Staphylococcus auricularis; assay: Antibacterial activity against clinical isolate Staphylococcus auricularis NKC 7 assessed as reduction in microbial growth incubated for 24 hrs by broth microdilution method; type: functional
[9] = system: Staphylococcus haemolyticus; assay: Antibacterial activity against clinical isolate Staphylococcus haemolyticus NKC 31/2 assessed as reduction in microbial growth incubated for 24 hrs by broth microdilution method; type: functional
[10] = Cytotoxicity against human CHL assessed as reduction in cell viability incubated for 72 hrs by MTT assay; type: toxicity, cell-based; conditions: CHL cells
[11] = Genotoxicity in Salmonella typhimurium TA98 by Ames test; type: toxicity; conditions: salmonella enterica subsp. enterica serovar typhimurium
Cedecea davisae = assay: Antibacterial activity against clinical isolate Cedecea davisae 1813 assessed as reduction in microbial growth incubated for 24 hrs by broth microdilution method; type: functional
Salmonella typhimurium = assay: Antibacterial activity against Salmonella typhimurium TA100 assessed as reduction in microbial growth incubated for 24 hrs by broth microdilution method; type: functional, Salmonella enterica subsp. enterica serovar Typhimurium; conditions: Salmonella enterica
[12] = system: Staphylococcus haemolyticus; assay: Antibacterial activity against clinical isolate Staphylococcus haemolyticus 1464 assessed as reduction in microbial growth incubated for 24 hrs by broth microdilution method; type: functional
[13] = Cytotoxicity against human MSC assessed as reduction in cell viability incubated for 72 hrs by MTT assay; type: toxicity, cell-based; conditions: MSC cells
Staphylococcus aureus [14] = assay: Potency index ratio of ciprofloxacin ED50 to test compound ED50 for invivo antibacterial activity against Staphylococcus aureus N-10 infected in Po dosed SHK mouse model of sepsis; type: functional
Escherichia coli [15] = assay: Antibacterial activity against clinical isolate Escherichia coli NKC 1 assessed as reduction in microbial growth incubated for 24 hrs by broth microdilution method; type: functional
[16] = Toxicity in F1 C57Bl6 x CBA mouse assessed as mortality at 2000 mg/kg, po; type: organism-based; conditions: in vivo
Escherichia coli [17] = assay: Antibacterial activity against Escherichia coli ATCC 25922 assessed as reduction in microbial growth incubated for 24 hrs by broth microdilution method; type: functional
[18] = Toxicity in po dosed F1 C57Bl6 x CBA mouse assessed as lethal dose; type: organism-based; conditions: in vivo
Enterococcus faecalis = assay: Antibacterial activity against clinical isolate Enterococcus faecalis 1465 assessed as reduction in microbial growth incubated for 24 hrs by broth microdilution method; type: functional
Staphylococcus aureus [19] = assay: In vivo antibacterial activity against Staphylococcus aureus N-10 infected in SHK mouse model of sepsis assessed as animal death at 2 to 4 mg/kg, po measured after 5 to 14 days; type: functional, organism-based; conditions: dose 2-4 mg/kg, time 5-14 day
Staphylococcus aureus [20] = assay: In vivo antibacterial activity against Staphylococcus aureus N-10 infected in SHK mouse model of sepsis assessed as survival at 16 to 18 mg/kg, po measured after 14 days relative to control; type: functional, organism-based; conditions: dose 16-18 mg/kg, time 14.0 day
Topoisomerase IV = Topoisomerase IV (Staphylococcus aureus, UniProt P0C1S7+P0C1U9); assay: Inhibition of Staphylococcus aureus topoisomerase-IV assessed as reduction in decatenation using kinetoplast DNA as substrate incubated for 30 mins by ethidium bromide staining based agarose gel electrophoresis method; type: protein-complex assay
[21] = system: Staphylococcus epidermidis; assay: Antibacterial activity against clinical isolate Staphylococcus epidermidis assessed as reduction in microbial growth incubated for 24 hrs by broth microdilution method; type: functional
[22] = Genotoxicity in Salmonella typhimurium TA100 by Ames test; type: toxicity; conditions: salmonella enterica subsp. enterica serovar typhimurium
[23] = Genotoxicity in Salmonella typhimurium TA102 by Ames test; type: toxicity; conditions: salmonella enterica subsp. enterica serovar typhimurium
Staphylococcus aureus [24] = assay: Antibacterial activity against clinical isolate methicillin resistant Staphylococcus aureus 4771 assessed as reduction in microbial growth incubated for 24 hrs by broth microdilution method; type: functional
[25] = Toxicity in male rat assessed as mortality at 2000 mg/kg, po; type: organism-based; conditions: in vivo
Staphylococcus aureus [26] = assay: Antibacterial activity against methicillin sensitive Staphylococcus aureus ATCC 29213 assessed as reduction in microbial growth incubated for 24 hrs by broth microdilution method; type: functional
Micrococcus luteus = assay: Antibacterial activity against clinical isolate Micrococcus luteus assessed as reduction in microbial growth incubated for 24 hrs by broth microdilution method; type: functional
Klebsiella aerogenes = assay: Antibacterial activity against clinical isolate Enterobacter aerogenes NKC 8 assessed as reduction in microbial growth incubated for 24 hrs by broth microdilution method; type: functional
[27] = Toxicity in po dosed rat assessed as lethal dose; type: organism-based; conditions: in vivo
Pseudomonas aeruginosa [28] = assay: Antibacterial activity against Pseudomonas aeruginosa ATCC 27853 assessed as reduction in microbial growth incubated for 24 hrs by broth microdilution method; type: functional
[29] = Cytotoxicity against human HSF assessed as reduction in cell viability incubated for 72 hrs by MTT assay; type: toxicity, cell-based; conditions: HSF cells
Klebsiella pneumoniae = assay: Antibacterial activity against clinical isolate Klebsiella pneumoniae 1678 assessed as reduction in microbial growth incubated for 24 hrs by broth microdilution method; type: functional
Pseudomonas aeruginosa [30] = assay: Antibacterial activity against clinical isolate Pseudomonas aeruginosa NKC 17 assessed as reduction in microbial growth incubated for 24 hrs by broth microdilution method; type: functional
Bacillus subtilis = assay: Antibacterial activity against Bacillus subtilis 168 assessed as reduction in microbial growth incubated for 24 hrs by broth microdilution method; type: functional
[31] = Toxicity in rat assessed as liver darkening at 2000 mg/kg, po after 14 days; type: organism-based; conditions: in vivo, 336 h, time 14 day
[32] = Toxicity in F1 C57Bl6 x CBA mouse assessed as mortality at 1000 to 2000 mg/kg, po relative to control; type: organism-based; conditions: in vivo, dose 1000-2000 mg/kg
[33] = Toxicity in F1 C57Bl6 x CBA mouse assessed as kidney darkening at 125 mg/kg, po after 14 days; type: organism-based; conditions: in vivo, 336 h, time 14 day
[34] = Toxicity in F1 C57Bl6 x CBA mouse assessed as liver darkening at 125 mg/kg, po after 14 days; type: organism-based; conditions: in vivo, 336 h, time 14 day
[35] = Toxicity in male F1 C57Bl6 x CBA mouse assessed as mortality at 125 mg/kg, po; type: organism-based; conditions: in vivo
[36] = Toxicity in female F1 C57Bl6 x CBA mouse assessed as mortality at 1000 mg/kg, po; type: organism-based; conditions: in vivo
[37] = Toxicity in F1 C57Bl6 x CBA mouse assessed as mortality at […] 125 to 500 mg/kg, po relative to control; type: organism-based; conditions: in vivo, at 125 to 500 mg/kg, dose 125-500 mg/kg
[38] = Toxicity in female F1 C57Bl6 x CBA mouse assessed as mortality at 125 mg/kg, po; type: organism-based; conditions: in vivo
[39] = Toxicity in po dosed female F1 C57Bl6 x CBA mouse assessed as lethal dose; type: organism-based; conditions: in vivo
[40] = Toxicity in male F1 C57Bl6 x CBA mouse assessed as mortality at 1000 to 2000 mg/kg, po; type: organism-based; conditions: in vivo, dose 1000-2000 mg/kg
[41] = Toxicity in rat assessed as kidney darkening at 2000 mg/kg, po after 14 days; type: organism-based; conditions: in vivo, 336 h, time 14 day
[42] = Toxicity in po dosed male F1 C57Bl6 x CBA mouse assessed as lethal dose; type: organism-based; conditions: in vivo

Compound: Cc1ncc(CN2CCN(c3cc4c(cc3F)c(=O)c(C(=O)O)cn4C3CC3)CC2)c(CO)c1O.Cl
- MIC (Staphylococcus aureus [1]): 1 mg/L
- IC50 (DNA gyrase [2]): 59.7 µM
- Activity [3]: Non-Toxic
- IC50 (DNA gyrase [4]): 1460 µM
- ED50 (Staphylococcus aureus [5]): 7.3 mg/kg
- MIC (Staphylococcus aureus [6]): 0.5 mg/L
- MIC [7]: 0.5 mg/L
- MIC [8]: 0.03 mg/L
- MIC [9]: 8 mg/L
- CC50 at 72 h [10]: 30.9 mg/L
- Activity [11]: Non-Toxic
- MIC (Cedecea davisae): 1 mg/L
- MIC (Salmonella typhimurium): 2 mg/L
- MIC [12]: 1 mg/L
- CC50 at 72 h [13]: 40.3 mg/L
- Ratio ED50 (Staphylococcus aureus [14]): 1.5
- MIC (Escherichia coli [15]): 0.5 mg/L
- Activity [16]: Non-Toxic
- MIC (Escherichia coli [17]): 2 mg/L
- LD50 [18]: > 2000 mg/kg
- MIC (Enterococcus faecalis): 32 mg/L
- Activity (Staphylococcus aureus [19]): inactive
- Activity (Staphylococcus aureus [20]): Active
- IC50 (Topoisomerase IV): 397 µM
- MIC [21]: 2 mg/L
- Activity [22]: Non-Toxic
- Activity [23]: Non-Toxic
- MIC (Staphylococcus aureus [24]): 1 mg/L
- Activity [25]: Non-Toxic
- MIC (Staphylococcus aureus [26]): 2 mg/L
- MIC (Micrococcus luteus): 4 mg/L
- MIC (Klebsiella aerogenes): 2 mg/L
- LD50 [27]: > 2000 mg/kg
- MIC (Pseudomonas aeruginosa [28]): > 64 mg/L
- CC50 at 72 h [29]: 34.5 mg/L
- MIC (Klebsiella pneumoniae): 8 mg/L
- MIC (Pseudomonas aeruginosa [30]): 16 mg/L
- MIC (Bacillus subtilis): 2 mg/L

Compound: COc1c(N2C[C@@H]3CCCN(Cc4cnc(C)c(O)c4C)[C@@H]3C2)c(F)cc2c(=O)c(C(=O)O)cn(C3CC3)c12.Cl.Cl
- MIC (Staphylococcus aureus [1]): 0.25 mg/L
- IC50 (DNA gyrase [2]): > 656 µM
- Activity [31]: Toxic
- IC50 (DNA gyrase [4]): 85.3 µM
- MIC (Staphylococcus aureus [6]): 0.06 mg/L
- MIC [7]: 0.06 mg/L
- MIC [8]: 0.03 mg/L
- mortality [32]: > 80%
- MIC [9]: 8 mg/L
- CC50 at 72 h [10]: 8.22 mg/L
- Activity [11]: Non-Toxic
- MIC (Cedecea davisae): 0.03 mg/L
- MIC (Salmonella typhimurium): 1 mg/L
- Activity [33]: Non-Toxic
- Activity [34]: Non-Toxic
- MIC [12]: 0.06 mg/L
- CC50 at 72 h [13]: 12.7 mg/L
- MIC (Escherichia coli [15]): 2 mg/L
- Activity [35]: Non-Toxic
- Activity [36]: Toxic
- MIC (Escherichia coli [17]): 2 mg/L
- mortality [37]: 0%
- MIC (Enterococcus faecalis): 4 mg/L
- IC50 (Topoisomerase IV): 26.2 µM
- Activity [38]: Non-Toxic
- LD50 [39]: 541 mg/kg
- MIC [21]: 0.5 mg/L
- Activity [22]: Non-Toxic
- Activity [23]: Non-Toxic
- MIC (Staphylococcus aureus [24]): 0.06 mg/L
- Activity [25]: Non-Toxic
- Activity [40]: Toxic
- Activity [41]: Toxic
- MIC (Staphylococcus aureus [26]): 0.5 mg/L
- MIC (Micrococcus luteus): 0.5 mg/L
- MIC (Klebsiella aerogenes): 16 mg/L
- LD50 [27]: > 2000 mg/kg
- MIC (Pseudomonas aeruginosa [28]): 1 mg/L
- CC50 at 72 h [29]: 17.6 mg/L
- LD50 [42]: 406 mg/kg
- MIC (Klebsiella pneumoniae): 64 mg/L
- MIC (Pseudomonas aeruginosa [30]): 64 mg/L
- MIC (Bacillus subtilis): 0.5 mg/L
